Laboratory results from US20190322632A1, “HRI ACTIVATORS USEFUL FOR THE TREATMENT OF CARDIOMETABOLIC DISEASES” (UNIVERSITAT DE BARCELONA, priority 2016, published 2019).

Assays:
[1] = biological target: T1, HRI (Homo sapiens, UniProt Q9BQI3); assay: HRI phosphorylation in human Huh-7 hepatic cells (Western-blot, ratio phosphorylated/total HRI); format: cell-based; settings: Huh-7 cells, 24 h, 10 μM, vs vehicle (DMSO) control; FIG. 1, FIG. 2
T1 construct: endogenous in cells; host or cells: Huh-7 human hepatic cells
T1 sequence (Q9BQI3 whole entry): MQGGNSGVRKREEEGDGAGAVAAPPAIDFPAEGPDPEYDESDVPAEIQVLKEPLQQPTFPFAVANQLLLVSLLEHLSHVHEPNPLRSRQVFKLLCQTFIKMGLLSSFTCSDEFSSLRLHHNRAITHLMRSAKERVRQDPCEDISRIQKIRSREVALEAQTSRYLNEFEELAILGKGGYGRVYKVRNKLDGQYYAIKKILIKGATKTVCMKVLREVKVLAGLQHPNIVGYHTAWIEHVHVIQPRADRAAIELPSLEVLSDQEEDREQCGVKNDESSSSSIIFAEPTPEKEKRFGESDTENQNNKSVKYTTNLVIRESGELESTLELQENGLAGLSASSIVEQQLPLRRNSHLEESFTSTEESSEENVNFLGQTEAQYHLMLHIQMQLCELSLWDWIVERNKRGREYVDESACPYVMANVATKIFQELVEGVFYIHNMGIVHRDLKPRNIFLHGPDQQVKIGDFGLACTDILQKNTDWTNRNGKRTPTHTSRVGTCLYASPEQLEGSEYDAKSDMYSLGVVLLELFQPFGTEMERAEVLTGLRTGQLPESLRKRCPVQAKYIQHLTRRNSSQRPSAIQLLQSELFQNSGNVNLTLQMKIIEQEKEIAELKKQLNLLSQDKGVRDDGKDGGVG
Excerpt: Data are presented as the mean±SD (n=4). *p<0.05 vs. control (CT) cells. ^#p<0.05 vs. BTdCPU-treated cells. BTdCPU=1-(benzo[d][1,2,3]thiadiazol-6-yl)-3-(3,4-dichlorophenyl)urea (compound (2) in Chen T. et al., ibid.).
Data are presented as the mean±SD (n=4). ***p<0.001 and *p<0.05 vs. control (CT) cells. ^#p<0.05 vs. BTdCPU-treated cells. Compound I-2 (1-(4-chloro-3-(trifluoromethyl)phenyl)-3-(4-chloro-3-(trifluoromethyl)phenyl)urea is not part of the present invention, but it has been introduced in some figures for comparative purposes.
HRI is activated by autophosphorylation and this has been used for evaluating its activation. In fact, the hyperphosphorylation of HRI is accompanied by an increase of its eIF2α kinase activity (cf. Lu L. et al., “Translation initiation control by heme-regulated eukaryotic initiation factor 2a kinase in erythroid cells under cytoplasmic stresses”, Mol. Cell. Biol., 2001, vol. 21, pp. 7971-7980). Therefore, HRI protein constitutively exists as the native nonphosphorylated 76-kDa species and/or the autoactivated/autophosphorylated 92-kDa, although the relative abundance of each HRI species tends to vary depending on the cells examined (cf. Acharya P. et al., “Hepatic heme-regulated inhibitor (HRI) eukaryotic initiation factor 2a kinase: A protagonist of heme-mediated translational control of CYP2B enzymes and a modulator of basal endoplasmic reticulum stress tone”, Mol. Pharmacol, 2010, vol. 77, pp. 575-592). […] Thus Huh-7 cells were incubated for 24 h with vehicle (DMSO, CT cells) or 10 μM of each of the assayed compound. The effects of these compounds were compared to the well-known HRI activator BTdCPU.

[2] = tested on: FGF21; assay: FGF21 expression in hepatocytes (quantitative real-time RT-PCR); format: cell-based, human; settings: Huh-7 hepatocytes, 24 h, 10 μM; FIG. 9
Method: Human Huh-7 hepatocytes were incubated for 24 h in the absence (Control, CT) or in the presence of compounds (10 μM). Assessment by quantitative real-time RT-PCR of FGF21. Data are presented as the mean±SD (n=4 per group). ***p<0.001 and **p<0.01 vs CT. ^###p<0.001, ^##p<0.01 and ^#p<0.05 vs BTCtFPU. ^††p<0.01 and ^†p<0.05 vs BTdCPU. BTCtFPU=1-(benzo[d][1,2,3]thiadiazol-6-yl)-3-(4-chloro-3-(trifluoromethyl)phenyl)urea (compound (3) in Chen T. et al., ibid.).

[3] = tested on: eIF2α; assay: eIF2α phosphorylation in human Huh-7 hepatic cells (Western-blot); format: cell-based; settings: Huh-7 cells, 24 h, 10 μM, compared to BTdCPU; FIG. 3, FIG. 4
Excerpt: Data are presented as the mean±SD (n=4). **p<0.01 and *p<0.05 vs. control (CT) cells. ^##p<0.01 and ^#p<0.05 vs. BTdCPU-treated cells.
Data are presented as the mean±SD (n=4). *p<0.05 vs. control (CT) cells.
HRI is a kinase that phosphorylates eukaryotic Initiation Factor 2α (eIF-2a) at its Ser 51 residue to execute protein synthesis regulation and thereby HRI activators cause the phosphorylation of eIF2α as previously described (Chen T, et al., ibid). To confirm whether the new synthesized compounds were able to activate the HRI eIF2α kinase inventors examined the eIF2α phosphorylation caused by these compounds compared to the well-known HRI eIF2α kinase activator BTdCPU. Human Huh-7 hepatocytes were incubated for 24 h with vehicle (DMSO, CT cells) or 10 μM of each of the assayed compounds. eIF2α phosphorylation was determined by Western-blot.

[4] = tested on: mice fed a high-fat diet (HFD); assay: Glucose tolerance test in mice fed a high-fat diet; format: in vivo; settings: HFD three weeks, 70 mg kg^−1 day^−1 i.p. daily for the last week, FIG. 7
Excerpt: Data are presented as the mean±SD (n=6 per group). *p<0.05 vs. mice fed a standard diet (CT). #p<0.05 vs. mice fed a HFD. G: glucose.
T2DM is characterized by glucose intolerance, which is contributed to by peripheral (muscle, fat, and liver) insulin resistance as well as islet […] dysfunction (cf. Andrikopoulos S. et al., “Evaluating the glucose tolerance test in mice”, Am. J. Physiol. Endocrinol. Metab., 2008, vol. 295, pp. E1323-32). The glucose tolerance test (GTT) is used in clinical practice and research to identify individuals with impaired glucose tolerance by assessing the disposal of a glucose load. It is important to acknowledge that the GTT is the only means of identifying impaired glucose tolerance, which is considered a prediabetic state (cf. Andrikopoulos S. et al., ibid). The standard presentation of results from GTTs is a description of blood glucose levels over time after the glucose administration. Generally, a time course of absolute glucose levels is presented. When using diabetic or insulin-resistant models (such as the HFD-fed mouse), a time course of absolute glucose levels should still be presented along with a calculation of the AUC above baseline glucose. In this assay, the effect of the BTdCPU compound on glucose tolerance in mice fed a high-fat diet (HFD) was examined. […]

[5] = tested on: human Huh-7 hepatocytes; assay: Palmitate-induced triglyceride accumulation in hepatocytes (Oil Red O staining); format: cell-based; settings: Huh-7 cells, 24 h, 0.75 mmol/L palmitate plus 10 μmol/L compound; FIG. 5
Method: To examine the effects of HRI activators on triglyceride accumulation and insulin signaling in hepatocytes, the N,N′-diarylurea BTdCPU was used. HRI is a kinase that phosphorylates eIF2α at its Ser 51 residue to execute protein synthesis regulation and thereby HRI activators cause the phosphorylation of eIF2α as previously described (Chen T. et al., ibid). First, the effect of BTdCPU on human Huh-7 hepatocytes exposed to the saturated fatty acid palmitate was explored. Huh-7 cells were incubated for 24 h with BSA (Control, CT), 0.75 mmol/L palmitate (Pal) conjugated with BSA or 0.75 mmol/L palmitate plus 10 μmol/L BTdCPU (Pal+BTdCPU). Then, they were stained with Oil Red O that allows selective detection of neutral lipids (primarily triglyceride and cholesterol esters) within Huh-7 cells.

[6] = tested on: Akt; assay: Insulin signalling in hepatocytes (insulin-stimulated Akt phosphorylation, immunoblot); format: cell-based, human; settings: Huh-7 cells, 24 h, 0.75 mmol/L palmitate plus 10 μmol/L compound, 100 nmol/L insulin last 10 min; FIG. 6
Method: (B). When indicated (+), cells were incubated with 100 nmol/L insulin (I) for the last 10 min. Data are presented as the mean±SD (n=4 per group). ***p<0.001 and *p<0.05 vs. control cells not exposed to insulin. ^###p<0.001 and ^##p<0.01 vs. insulin-stimulated control cells. ^554 \\p<0.001 vs. insulin-stimulated cells incubated with palmitate. Ins: insulin.
Inventors examined the insulin signalling pathway by measuring insulin-stimulated Akt phosphorylation. Huh-7 cells were incubated for 24 h with BSA (Control, CT), 0.75 mmol/L palmitate (Pal) conjugated with BSA, or 0.75 mmol/L palmitate plus 10 μmol/L BTdCPU (Pal+BTdCPU). Immunoblot analyses of total and phosphorylated Akt was carried out.

[7] = tested on: mice fed a HFD; assay: HFD-induced steatosis in mice (ORO and H&E liver staining, hepatic triglyceride levels); format: in vivo; settings: HFD three weeks, 70 mg kg^−1 day^−1 i.p. daily for the last week
Excerpt: FIG. 8. (A) Oil Red O and eosin-hematoxylin (H&E) staining of livers of mice fed a standard chow (CT), a HFD for three weeks (HFD) or a HFD for three weeks plus BTdCPU during the last week (HFD+BTdCPU). (B) Liver triglyceride levels. Data are presented as the mean±SD (n=6 per group). *p<0.05 vs. mice fed a standard diet (CT). ^#p<0.05 vs. mice fed a HFD. G: glucose. TG: triglyceride.
Inventors examined whether the treatment with an HRI activator (BTdCPU) prevented the development of steatosis induced by a HFD. Histological analysis of a liver biopsy remains the gold standard for assessing the degree of steatosis. ORO staining and eosin-hematoxylin (H&E) staining of liver sections were performed. Mice fed a standard chow and half of the mice fed the HFD received one daily i.p. administration of DMSO (vehicle) for the last week. The rest of the mice fed the HFD received one daily i.p. administration of BTdCPU (70 mg kg^−1 day^−1) for the last week. […] Finally, hepatic lipids were extracted and hepatic triglyceride levels were assessed by using a commercially available kit (TR0100, Sigma). […] Overall, these findings indicate that HRI activation prevents HFD-induced steatosis.

O=C(Nc1cccc(S(F)(F)(F)(F)F)c1)Nc1ccc2nnsc2c1 [compound I-26, 1-(Benzo[d][1,2,3]thiadiazol-6-yl)-3-(3-(pentafluoro-λ^6-sulfanyl)phenyl)urea]
ratio phosphorylated/total HRI [1]: increased the ratio phosphorylated/total HRI | FGF21 expression compared with BTCtFPU [2]: higher expression in FGF21 than BTCtFPU | FGF21 expression compared with BTdCPU [2]: higher increase in FGF21 expression than that observed for compound BTdCPU | eIF2α phosphorylation [3]: marked increase in eIF2α phosphorylation, higher than the observed with BTdCPU | melting point: 229 to 230 °C

O=C(Nc1ccc(Cl)c(Cl)c1)Nc1ccc2nnsc2c1 [BTdCPU, 1-(benzo[d][1,2,3]thiadiazol-6-yl)-3-(3,4-dichlorophenyl)urea]
glucose tolerance test AUC above baseline glucose [4]: prevented the increase in the AUC above baseline glucose | palmitate-induced triglyceride accumulation (Oil Red O staining) [5]: accumulation was prevented | FGF21 expression compared with BTCtFPU [2]: significant higher increase than compound BTCtFPU | insulin-stimulated Akt phosphorylation [6]: partially restored the reduction in insulin-stimulated Akt phosphorylation caused by palmitate | hepatic steatosis (ORO and H&E staining) ([7]; FIG. 8A): hepatic steatosis was reversed | hepatic triglyceride levels ([7]; FIG. 8B): increase was completely blunted
